Values joined by “and” are separate entries in the source; they are usually repeats but may differ in a detail not shown here. Equal values may be shown once.
Assays:
Plasma protein binding = type: in vitro ADME, mice, rats, dogs, and humans; conditions: mouse, rat, dog, human
[1] = system: murine MCAO model of ischemic brain injury; conditions: cited from earlier work
CYP3A = conditions: ref unpublished data and Ref 35; cited from earlier work
[2] = mouse, minimum effective dose 2 mg/kg IP; cited from earlier work
[3] = In vitro metabolic stability, hepatic microsomes; type: in vitro ADME, mice, rats, dogs, and humans; conditions: mouse, rat, dog, human, liver microsomes
GABAergic receptors = conditions: cited from earlier work
over 40 CNS targets = conditions: cited from earlier work
rats and dogs = assay: Repeat-dose toxicity studies of up to 14 days; type: in vivo; conditions: repeat-dose toxicity studies up to 14 days, dose-limiting effect in both species
pre-clinical models = conditions: cited from earlier work
healthy adult volunteers [4] = assay: Multiple ascending dose study NP10679-102, safety and tolerability; type: in vivo, human; conditions: MAD; for Subjects with at least one TEAE / TEAE, system organ class: Blood and lymphatic system disorders / TEAE, system organ class: Eye disorders / TEAE, system organ class: Gastrointestinal disorders / TEAE, system organ class: General disorders and administration site conditions / TEAE, system organ class: Injury, poisoning and procedural complications / TEAE, system organ class: Investigations / TEAE, system organ class: Musculoskeletal and connective tissue disorders / TEAE, system organ class: Nervous system disorders / TEAE, system organ class: Skin and subcutaneous tissue disorders / TEAE, system organ class: Vascular disorders / TEAE: Anaemia / TEAE: Asthenia / TEAE: Back pain / TEAE: Blood pressure diastolic decreased / TEAE: Contusion / TEAE: Dizziness / TEAE: Dysgeusia / TEAE: Erythema / TEAE: Fatigue / TEAE: Head injury / TEAE: Headache / TEAE: Nausea / TEAE: Pain / TEAE: Peripheral swelling / TEAE: Phlebitis / TEAE: Somnolence / TEAE: Syncope / TEAE: Vision blurred: N = 6
hERG channel = conditions: read-out: IC50, hERG channel; cited from earlier work
healthy adult volunteers [5] = assay: Single ascending dose study NP10679-101, safety and tolerability; type: in vivo

O=C1CCc2cc(OC[C@H](O)CN3CCN(c4ccc(C(F)(F)F)cc4)CC3)ccc2N1 [NP10679, (R)-6-(2-Hydroxy-3-(4-(4-(trifluoromethyl)phenyl)piperazin-1-yl)propoxy)-3,4-dihydroquinolin-2(1H)-one]
fraction unbound (Plasma protein binding): 0.01 to 0.026
minimum effective dose in the MCAO model ([1]; IP, mouse): 2 mg/kg
infarct volume ([1]; administered 15 minutes prior to occlusion): effective in reducing infarct volume
time-dependent inhibition of CYP3A (CYP3A): does not lead to significant time-dependent inhibition
AUC(0-inf) [2]: 5690 ng·h/mL
Cmax [2]: 581 ng/mL
half-life [3]: > 120 min
activity at GABAergic receptors (GABAergic receptors): does not have activity
activity at over 40 CNS targets (over 40 CNS targets): lacks demonstrable activity
adverse effect directly related to IV administration (rats and dogs): sedation
somnolence in pre-clinical models (pre-clinical models): leads to somnolence at doses above those necessary to achieve efficacy
dissociative symptoms or cognitive impairment (CADSS, DSST) (healthy adult volunteers [4]): no evidence
serious adverse events (SAEs) (healthy adult volunteers [4]): No serious adverse events
Subjects with at least one TEAE (healthy adult volunteers [4]; 25 mg IV once daily x 5 days): 5 (83.3%) n (%)
TEAE, system organ class: Blood and lymphatic system disorders (healthy adult volunteers [4]; 25 mg IV once daily x 5 days): 2 (33.3%) n (%)
TEAE, system organ class: Eye disorders (healthy adult volunteers [4]; 25 mg IV once daily x 5 days): 0 n (%)
TEAE, system organ class: Gastrointestinal disorders (healthy adult volunteers [4]; 25 mg IV once daily x 5 days): 0 n (%)
TEAE, system organ class: General disorders and administration site conditions (healthy adult volunteers [4]; 25 mg IV once daily x 5 days): 1 (16.7%) n (%)
TEAE, system organ class: Injury, poisoning and procedural complications (healthy adult volunteers [4]; 25 mg IV once daily x 5 days): 2 (33.3%) n (%)
TEAE, system organ class: Investigations (healthy adult volunteers [4]; 25 mg IV once daily x 5 days): 1 (16.7%) n (%)
TEAE, system organ class: Musculoskeletal and connective tissue disorders (healthy adult volunteers [4]; 25 mg IV once daily x 5 days): 0 n (%)
TEAE, system organ class: Nervous system disorders (healthy adult volunteers [4]; 25 mg IV once daily x 5 days): 3 (50.0%) n (%)
TEAE, system organ class: Skin and subcutaneous tissue disorders (healthy adult volunteers [4]; 25 mg IV once daily x 5 days): 0 n (%)
TEAE, system organ class: Vascular disorders (healthy adult volunteers [4]; 25 mg IV once daily x 5 days): 0 n (%)
TEAE: Anaemia (healthy adult volunteers [4]; 25 mg IV once daily x 5 days): 2 (33.3%) n (%)
TEAE: Asthenia (healthy adult volunteers [4]; 25 mg IV once daily x 5 days): 0 n (%)
TEAE: Back pain (healthy adult volunteers [4]; 25 mg IV once daily x 5 days): 0 n (%)
TEAE: Blood pressure diastolic decreased (healthy adult volunteers [4]; 25 mg IV once daily x 5 days): 1 (16.7%) n (%)
TEAE: Contusion (healthy adult volunteers [4]; 25 mg IV once daily x 5 days): 2 (33.3%) n (%)
TEAE: Dizziness (healthy adult volunteers [4]; 25 mg IV once daily x 5 days): 0 n (%)
TEAE: Dysgeusia (healthy adult volunteers [4]; 25 mg IV once daily x 5 days): 1 (16.7%) n (%)
TEAE: Erythema (healthy adult volunteers [4]; 25 mg IV once daily x 5 days): 0 n (%)
TEAE: Fatigue (healthy adult volunteers [4]; 25 mg IV once daily x 5 days): 1 (16.7%) n (%)
TEAE: Head injury (healthy adult volunteers [4]; 25 mg IV once daily x 5 days): 0 n (%)
TEAE: Headache (healthy adult volunteers [4]; 25 mg IV once daily x 5 days): 2 (33.3%) n (%)
TEAE: Nausea (healthy adult volunteers [4]; 25 mg IV once daily x 5 days): 0 n (%)
TEAE: Pain (healthy adult volunteers [4]; 25 mg IV once daily x 5 days): 0 n (%)
TEAE: Peripheral swelling (healthy adult volunteers [4]; 25 mg IV once daily x 5 days): 0 n (%)
TEAE: Phlebitis (healthy adult volunteers [4]; 25 mg IV once daily x 5 days): 0 n (%)
TEAE: Somnolence (healthy adult volunteers [4]; 25 mg IV once daily x 5 days): 0 n (%)
TEAE: Syncope (healthy adult volunteers [4]; 25 mg IV once daily x 5 days): 0 n (%)
TEAE: Vision blurred (healthy adult volunteers [4]; 25 mg IV once daily x 5 days): 0 n (%)
Subjects with at least one TEAE (healthy adult volunteers [4]; 50 mg IV once daily x 5 days): 3 (50.0%) n (%)
TEAE, system organ class: Blood and lymphatic system disorders (healthy adult volunteers [4]; 50 mg IV once daily x 5 days): 0 n (%)
TEAE, system organ class: Eye disorders (healthy adult volunteers [4]; 50 mg IV once daily x 5 days): 0 n (%)
TEAE, system organ class: Gastrointestinal disorders (healthy adult volunteers [4]; 50 mg IV once daily x 5 days): 0 n (%)
TEAE, system organ class: General disorders and administration site conditions (healthy adult volunteers [4]; 50 mg IV once daily x 5 days): 2 (33.3%) n (%)
TEAE, system organ class: Injury, poisoning and procedural complications (healthy adult volunteers [4]; 50 mg IV once daily x 5 days): 1 (16.7%) n (%)
TEAE, system organ class: Investigations (healthy adult volunteers [4]; 50 mg IV once daily x 5 days): 0 n (%)
TEAE, system organ class: Musculoskeletal and connective tissue disorders (healthy adult volunteers [4]; 50 mg IV once daily x 5 days): 0 n (%)
TEAE, system organ class: Nervous system disorders (healthy adult volunteers [4]; 50 mg IV once daily x 5 days): 3 (50.0%) n (%)
TEAE, system organ class: Skin and subcutaneous tissue disorders (healthy adult volunteers [4]; 50 mg IV once daily x 5 days): 1 (16.7%) n (%)
TEAE, system organ class: Vascular disorders (healthy adult volunteers [4]; 50 mg IV once daily x 5 days): 0 n (%)
TEAE: Anaemia (healthy adult volunteers [4]; 50 mg IV once daily x 5 days): 0 n (%)
TEAE: Asthenia (healthy adult volunteers [4]; 50 mg IV once daily x 5 days): 0 n (%)
TEAE: Back pain (healthy adult volunteers [4]; 50 mg IV once daily x 5 days): 0 n (%)
TEAE: Blood pressure diastolic decreased (healthy adult volunteers [4]; 50 mg IV once daily x 5 days): 0 n (%)
TEAE: Contusion (healthy adult volunteers [4]; 50 mg IV once daily x 5 days): 1 (16.7%) n (%)
TEAE: Dizziness (healthy adult volunteers [4]; 50 mg IV once daily x 5 days): 0 n (%)
TEAE: Dysgeusia (healthy adult volunteers [4]; 50 mg IV once daily x 5 days): 0 n (%)
TEAE: Erythema (healthy adult volunteers [4]; 50 mg IV once daily x 5 days): 1 (16.7%) n (%)
TEAE: Fatigue (healthy adult volunteers [4]; 50 mg IV once daily x 5 days): 1 (16.7%) n (%)
TEAE: Head injury (healthy adult volunteers [4]; 50 mg IV once daily x 5 days): 0 n (%)
TEAE: Headache (healthy adult volunteers [4]; 50 mg IV once daily x 5 days): 0 n (%)
TEAE: Nausea (healthy adult volunteers [4]; 50 mg IV once daily x 5 days): 0 n (%)
TEAE: Pain (healthy adult volunteers [4]; 50 mg IV once daily x 5 days): 1 (16.7%) n (%)
TEAE: Peripheral swelling (healthy adult volunteers [4]; 50 mg IV once daily x 5 days): 1 (16.7%) n (%)
TEAE: Phlebitis (healthy adult volunteers [4]; 50 mg IV once daily x 5 days): 0 n (%)
TEAE: Somnolence (healthy adult volunteers [4]; 50 mg IV once daily x 5 days): 3 n (%) and 3 (50.0%) n (%)
TEAE: Syncope (healthy adult volunteers [4]; 50 mg IV once daily x 5 days): 0 n (%)
TEAE: Vision blurred (healthy adult volunteers [4]; 50 mg IV once daily x 5 days): 0 n (%)
Subjects with at least one TEAE (healthy adult volunteers [4]; 100 mg IV once daily x 5 days): 6 (100%) n (%)
TEAE, system organ class: Blood and lymphatic system disorders (healthy adult volunteers [4]; 100 mg IV once daily x 5 days): 1 (16.7%) n (%)
TEAE, system organ class: Eye disorders (healthy adult volunteers [4]; 100 mg IV once daily x 5 days): 0 n (%)
TEAE, system organ class: Gastrointestinal disorders (healthy adult volunteers [4]; 100 mg IV once daily x 5 days): 1 (16.7%) n (%)
TEAE, system organ class: General disorders and administration site conditions (healthy adult volunteers [4]; 100 mg IV once daily x 5 days): 1 (16.7%) n (%)
TEAE, system organ class: Injury, poisoning and procedural complications (healthy adult volunteers [4]; 100 mg IV once daily x 5 days): 1 (16.7%) n (%)
TEAE, system organ class: Investigations (healthy adult volunteers [4]; 100 mg IV once daily x 5 days): 0 n (%)
TEAE, system organ class: Musculoskeletal and connective tissue disorders (healthy adult volunteers [4]; 100 mg IV once daily x 5 days): 0 n (%)
TEAE, system organ class: Nervous system disorders (healthy adult volunteers [4]; 100 mg IV once daily x 5 days): 4 (66.7%) n (%)
TEAE, system organ class: Skin and subcutaneous tissue disorders (healthy adult volunteers [4]; 100 mg IV once daily x 5 days): 0 n (%)
TEAE, system organ class: Vascular disorders (healthy adult volunteers [4]; 100 mg IV once daily x 5 days): 1 (16.7%) n (%)
TEAE: Anaemia (healthy adult volunteers [4]; 100 mg IV once daily x 5 days): 1 (16.7%) n (%)
TEAE: Asthenia (healthy adult volunteers [4]; 100 mg IV once daily x 5 days): 1 (16.7%) n (%)
TEAE: Back pain (healthy adult volunteers [4]; 100 mg IV once daily x 5 days): 0 n (%)
TEAE: Blood pressure diastolic decreased (healthy adult volunteers [4]; 100 mg IV once daily x 5 days): 0 n (%)
TEAE: Contusion (healthy adult volunteers [4]; 100 mg IV once daily x 5 days): 0 n (%)
TEAE: Dizziness (healthy adult volunteers [4]; 100 mg IV once daily x 5 days): 0 n (%)
TEAE: Dysgeusia (healthy adult volunteers [4]; 100 mg IV once daily x 5 days): 0 n (%)
TEAE: Erythema (healthy adult volunteers [4]; 100 mg IV once daily x 5 days): 0 n (%)
TEAE: Fatigue (healthy adult volunteers [4]; 100 mg IV once daily x 5 days): 0 n (%)
TEAE: Head injury (healthy adult volunteers [4]; 100 mg IV once daily x 5 days): 1 (16.7%) n (%)
TEAE: Headache (healthy adult volunteers [4]; 100 mg IV once daily x 5 days): 2 (33.3%) n (%)
TEAE: Nausea (healthy adult volunteers [4]; 100 mg IV once daily x 5 days): 1 (16.7%) n (%)
TEAE: Pain (healthy adult volunteers [4]; 100 mg IV once daily x 5 days): 1 (16.7%) n (%)
TEAE: Peripheral swelling (healthy adult volunteers [4]; 100 mg IV once daily x 5 days): 0 n (%)
TEAE: Phlebitis (healthy adult volunteers [4]; 100 mg IV once daily x 5 days): 1 (16.7%) n (%)
TEAE: Somnolence (healthy adult volunteers [4]; 100 mg IV once daily x 5 days): 3 n (%) and 3 (50.0%) n (%)
TEAE: Syncope (healthy adult volunteers [4]; 100 mg IV once daily x 5 days): 1 (16.7%) n (%)
TEAE: Vision blurred (healthy adult volunteers [4]; 100 mg IV once daily x 5 days): 0 n (%)
somnolence upon repeat dosing (healthy adult volunteers [4]; 5 days of dosing): no signs of increased somnolence
IC50 (hERG channel): 620 nM
dissociative symptoms or cognitive impairment (CADSS, DSST) (healthy adult volunteers [5]; SAD): no evidence
serious adverse events (SAEs) (healthy adult volunteers [5]; SAD): No serious adverse events
vital signs or ECGs (healthy adult volunteers [5]; SAD): no clinically significant changes
changes in mean values of HDRS, MMSE, SBQ-R, GAD-7 and CADSS (healthy adult volunteers [5]; SAD study): no detectable changes
subjects reaching a level 3 score on the MOAA/S (healthy adult volunteers [5]; SAD, 200 mg): no subject
subjects with conjunctival and scleral hyperemia (healthy adult volunteers [5]; SAD, 200 mg): 3 of 6
subjects presenting with somnolence (healthy adult volunteers [5]; SAD, at doses of 50 mg - 200 mg): 5 of 6
subjects presenting with somnolence (healthy adult volunteers [5]; SAD, at each of doses 5 and 15 mg): One of 6
blood pressure (both systolic and diastolic) (healthy adult volunteers [5]; SAD, highest two doses): non-clinically significant lower blood pressure
subjects describing intrusive thoughts (healthy adult volunteers [5]; SAD, single 150 mg dose): one subject
Bond-Lader VAS scale (healthy adult volunteers [5]; SAD, starting at 50 mg through 200 mg): moderate increases
